Results reported in patent publication US20110044973A1, “TREATMENT OF CYSTIC DISEASE WITH LYSOPHOSPHATIDIC ACID ANTAGONISTS” (priority 2009, published 2011).

System: mpkCCDc14 cell line
Assay: Short-circuit current electrophysiology in renal principal cells
Format: cell-based, mouse
Settings: FIG. 4
Source text: Described herein is the method of short-circuit electrophysiology used for detailed examination of the nature of the ion channels stimulated in response to cyst fluid. These studies utilized mouse principal cells of the kidney cortical collecting duct, clone 4 (mpkCCDc14) cell line. These cells have the characteristics of the principal cell type found in the distal portion of the renal nephron. Principal cells often line renal cysts. […] This finding is in agreement with Granthan et al. However, the activation of other ion channels by the fluid was also discovered. When examined in real time, the nature of channel activity by the cyst was quite different than the activity seen in response to forskolin, as shown in FIG. 1. These studies indicate that there are components found in cyst fluid that stimulate multiple ion transporters, which together cause electrolyte and fluid secretion into the cyst lumen.
Electrophysiological testing of effects NASPA on short circuit current. Cell preparations were pre-incubated with NASPA (10 μM) or diluent (DMSO) for 15 minutes prior to administration of 10% fetal bovine serum (FBS). FBS was administered serosally at time zero.
Electrophysiological testing of effects VPC 32183 on LPA induced increase in short circuit current. […]

`CCCCCCCCCCCCCCCC(=O)N[C@@H](COP(=O)(O)O)C(=O)O` [NASPA] was tested, and the “effect on response to LPA added as part of fetal bovine serum (short circuit current)” value (NASPA 10 μM pre-incubated 15 minutes, 10% FBS added serosally at time zero, versus diluent (DMSO)) was “antagonized the LPA added as part of the fetal bovine serum” and the “effect on short circuit current when first added” value (NASPA 10 μM, 15 minutes pre-incubation before 10% FBS) was “appeared to act like an agonist when first added”.
